From EP0007672A1, “Isocyanoalkenes, process and useful intermediates for their preparation, pharmaceutical and fungicidal preparations containing those isocyanoalkenes and the use of the fungicidal preparations in agriculture” (GIST-BROCADES N.V., priority 1978, dated 1980)
≈ marks a conversion by molar mass, not a printed value. Like-named read-outs stand apart in the source and are kept apart here.

Assays:
Assay in all cases: MIC (Minimum Inhibitory Concentration)
Format in all cases: cell-based
Candida albicans = system: Candida albicans
Pasteurella multocida = conditions: read-out: MIC values
Trichophyton equinum = system: Trichophyton equinum
[1] = system: Trichophyton mentagrophytus
Trichophyton quickeaneum = Trichophyton quickeaneum A 2040; read-out: MIC values
Trichophyton rubrum = system: Trichophyton rubrum
[2] = system: Trichophyton schoenleinii; conditions: Trichophyton schoenleinii 435-63; read-out: MIC values
[3] = system: Trichophyton soudanese joyeux; conditions: Trichophyton soudanese joyeux 440-63; read-out: MIC values
Trichophyton tonsurans = Trichophyton tonsurans 561-50; read-out: MIC values
Trichophyton verrucosum = system: Trichophyton verrucosum
Trichophyton violoceum = Trichophyton violoceum 442-62; read-out: MIC values
[4] = system: Streptococcus haemolyticus; conditions: Streptococcus haemolyticus A 1088; read-out: MIC values
[5] = Trichophyton equinum 182-76, read-out: MIC values
[6] = Trichophyton equinum 856-71, read-out: MIC values
[7] = Trichophyton mentagrophytus 367-68, read-out: MIC values
[8] = Trichophyton mentagrophytus 421-67, read-out: MIC values
[9] = Trichophyton mentagrophytus A 3252, read-out: MIC values
[10] = Trichophyton mentagrophytus R 177, read-out: MIC values
[11] = Trichophyton mentagrophytus R 178, read-out: MIC values
[12] = Trichophyton mentagrophytus RRL 305, read-out: MIC values
[13] = Trichophyton rubrum 218-65, read-out: MIC values
[14] = Trichophyton rubrum 494-62, read-out: MIC values
[15] = Trichophyton rubrum A 810, read-out: MIC values
[16] = Trichophyton verrucosum 134-66, read-out: MIC values
[17] = Trichophyton verrucosum A 2922, read-out: MIC values
[18] = Candida albicans A 7, read-out: MIC values
[19] = Candida albicans A 3140, read-out: MIC values
[20] = Candida albicans A 3141, read-out: MIC values
[21] = Candida albicans A 3144, read-out: MIC values
[22] = Candida albicans A 3145, read-out: MIC values
[23] = Candida albicans A 3165, read-out: MIC values
[24] = Candida albicans A 3166, read-out: MIC values
[25] = Candida albicans A 3167, read-out: MIC values
[26] = Candida albicans A 3168, read-out: MIC values
[27] = Candida albicans A 3169, read-out: MIC values
[28] = Candida albicans A 3171, read-out: MIC values
[29] = Candida albicans A 3190, read-out: MIC values
[30] = Candida albicans A 3191, read-out: MIC values
[31] = Candida albicans A 3194, read-out: MIC values
[32] = Candida albicans A 3196, read-out: MIC values

Compound | MIC (Trichophyton equinum; [5]) [µg/mL] | MIC (Trichophyton equinum; [6]) [µg/mL] | MIC [1, 7] [µg/mL] | MIC [1, 8] [µg/mL] | MIC [1, 9] [µg/mL] | MIC [1, 10] [µg/mL] | MIC [1, 11] [µg/mL] | MIC [1, 12] [µg/mL] | MIC (Trichophyton quickeaneum) [µg/mL] | MIC (Trichophyton rubrum; [13]) [µg/mL] | MIC (Trichophyton rubrum; [14]) [µg/mL] | MIC (Trichophyton rubrum; [15]) [µg/mL] | MIC [2] [µg/mL] | MIC [3] [µg/mL] | MIC (Trichophyton tonsurans) [µg/mL] | MIC (Trichophyton verrucosum; [16]) [µg/mL] | MIC (Trichophyton verrucosum; [17]) [µg/mL] | MIC (Trichophyton violoceum) [µg/mL] | MIC (Candida albicans; [18]) [µg/mL] | MIC (Candida albicans; [19]) [µg/mL] | also measured
Clc1ccc(COC(Cn2ccnc2)c2ccc(Cl)cc2Cl)c(Cl)c1 (stereo not shown) [miconazole, reference compound] | 0.4 (≈ 0.961 µM) | < 0.05 | 3 (≈ 7.21 µM) | 0.2 (≈ 0.481 µM) | 0.4 (≈ 0.961 µM) | 0.4 (≈ 0.961 µM) | 25 (≈ 60.1 µM) | 0.4 (≈ 0.961 µM) | 0.1 (≈ 0.24 µM) | 0.1 (≈ 0.24 µM) | 0.8 (≈ 1.92 µM) | 0.8 (≈ 1.92 µM) | 0.2 (≈ 0.481 µM) | 1.5 (≈ 3.6 µM) | 0.1 (≈ 0.24 µM) | 0.8 (≈ 1.92 µM) | 0.8 (≈ 1.92 µM) | 0.8 (≈ 1.92 µM) | – | – | MIC (Candida albicans; read-out: MIC values, Candida albicans A 7): 0.2 µg/mL (≈ 0.481 µM); MIC (Candida albicans; read-out: MIC values, Candida albicans A 3140): 0.1 µg/mL (≈ 0.24 µM); MIC (Candida albicans; read-out: MIC values, Candida albicans A 3141): < 0.05 µg/mL; MIC (Candida albicans; read-out: MIC values, Candida albicans A 3144): 0.8 µg/mL (≈ 1.92 µM); MIC (Candida albicans; read-out: MIC values, Candida albicans A 3145): < 0.05 µg/mL; MIC (Candida albicans; read-out: MIC values, Candida albicans A 3165): 0.2 µg/mL (≈ 0.481 µM); MIC (Candida albicans; read-out: MIC values, Candida albicans A 3167): < 0.05 µg/mL; MIC (Candida albicans; read-out: MIC values, Candida albicans A 3168): 100 µg/mL (≈ 240 µM); MIC (Candida albicans; read-out: MIC values, Candida albicans A 3169): 1.5 µg/mL (≈ 3.6 µM); MIC (Candida albicans; read-out: MIC values, Candida albicans A 3171): < 0.05 µg/mL; MIC (Candida albicans; read-out: MIC values, Candida albicans A 3190): < 0.05 µg/mL; MIC (Candida albicans; read-out: MIC values, Candida albicans A 3191): < 0.05 µg/mL; MIC (Candida albicans; read-out: MIC values, Candida albicans A 3194): 0.2 µg/mL (≈ 0.481 µM); MIC (Pasteurella multocida; Pasteurella multocida): > 100 µg/mL
[C-]#[N+]C(C(C)=CC)S(=O)(=O)c1ccc(C)cc1 (stereo not drawn) [Example 27b, 1-isocyano-2-methyl-l-(4-toluenesulphonyl)-2-butene] | 0.8 (≈ 3.21 µM) | 0.4 (≈ 1.6 µM) | 3 (≈ 12 µM) | 3 (≈ 12 µM) | 3 (≈ 12 µM) | 6 (≈ 24.1 µM) | 6 (≈ 24.1 µM) | 3 (≈ 12 µM) | 1.5 (≈ 6.02 µM) | 1.5 (≈ 6.02 µM) | 0.8 (≈ 3.21 µM) | 0.8 (≈ 3.21 µM) | 6 (≈ 24.1 µM) | 6 (≈ 24.1 µM) | 3 (≈ 12 µM) | 1.5 (≈ 6.02 µM) | 6 (≈ 24.1 µM) | 6 (≈ 24.1 µM) | 0.4 (≈ 1.6 µM) | 0.8 (≈ 3.21 µM) | MIC (Candida albicans; [20]): < 0.05 µg/mL; MIC (Candida albicans; [21]): 0.4 µg/mL (≈ 1.6 µM); MIC (Candida albicans; [22]): < 0.05 µg/mL; MIC (Candida albicans; [23]): 1.5 µg/mL (≈ 6.02 µM); MIC (Candida albicans; [24]): 3 µg/mL (≈ 12 µM); MIC (Candida albicans; [25]): 0.4 µg/mL (≈ 1.6 µM); MIC (Candida albicans; [26]): 0.4 µg/mL (≈ 1.6 µM); MIC (Candida albicans; [27]): 0.4 µg/mL (≈ 1.6 µM); MIC (Candida albicans; [28]): 0.4 µg/mL (≈ 1.6 µM); MIC (Candida albicans; [29]): 0.1 µg/mL (≈ 0.401 µM); MIC (Candida albicans; [30]): 0.2 µg/mL (≈ 0.802 µM); MIC (Candida albicans; [31]): 0.4 µg/mL (≈ 1.6 µM); MIC (Candida albicans; [32]): 0.4 µg/mL (≈ 1.6 µM); MIC (Pasteurella multocida; Pasteurella multocida A 723): 3 µg/mL (≈ 12 µM)
[C-]#[N+]C(=Cc1ccc(Cl)cc1)S(=O)(=O)c1ccc(C)cc1 [Example 11, 1-isocyanv-2-(4-chlorophenyl)-1-(4-toluenesulphonyl)-ethene] | 3 (≈ 9.44 µM) | < 0.05 | 1.5 (≈ 4.72 µM) | 6 (≈ 18.9 µM) | 1.5 (≈ 4.72 µM) | 3 (≈ 9.44 µM) | > 100 | 1.5 (≈ 4.72 µM) | 1.5 (≈ 4.72 µM) | 1.5 (≈ 4.72 µM) | 1.5 (≈ 4.72 µM) | 0.8 (≈ 2.52 µM) | 0.4 (≈ 1.26 µM) | 6 (≈ 18.9 µM) | 6 (≈ 18.9 µM) | < 0.05 | 0.4 (≈ 1.26 µM) | 0.1 (≈ 0.315 µM) | 0.8 (≈ 2.52 µM) | 0.4 (≈ 1.26 µM) | MIC (Candida albicans; [20]): 0.8 µg/mL (≈ 2.52 µM); MIC (Candida albicans; Candida albicans A 3142, read-out: MIC values): 1.5 µg/mL (≈ 4.72 µM); MIC (Candida albicans; Candida albicans A 3143, read-out: MIC values): 1.5 µg/mL (≈ 4.72 µM); MIC (Candida albicans; [21]): 1.5 µg/mL (≈ 4.72 µM); MIC (Candida albicans; [22]): 1.5 µg/mL (≈ 4.72 µM); MIC (Candida albicans; [23]): 1.5 µg/mL (≈ 4.72 µM); MIC (Candida albicans; [24]): 1.5 µg/mL (≈ 4.72 µM); MIC (Candida albicans; [25]): 1.5 µg/mL (≈ 4.72 µM); MIC (Candida albicans; [26]): 0.8 µg/mL (≈ 2.52 µM); MIC (Candida albicans; [27]): 1.5 µg/mL (≈ 4.72 µM); MIC (Candida albicans; [28]): 1.5 µg/mL (≈ 4.72 µM); MIC (Candida albicans; Candida albicans A 3184, read-out: MIC values): 1.5 µg/mL (≈ 4.72 µM); MIC (Candida albicans; [29]): 1.5 µg/mL (≈ 4.72 µM); MIC (Candida albicans; [30]): 1.5 µg/mL (≈ 4.72 µM); MIC (Candida albicans; Candida albicans A 3192, read-out: MIC values): 1.5 µg/mL (≈ 4.72 µM); MIC (Candida albicans; [31]): 1.5 µg/mL (≈ 4.72 µM); MIC (Candida albicans; [32]): 3 µg/mL (≈ 9.44 µM); MIC (Pasteurella multocida; Pasteurella multocida A 723): 6 µg/mL (≈ 18.9 µM); MIC [4]: 3 µg/mL (≈ 9.44 µM); MIC (Trichophyton equinum; Trichophyton equinum 441-51, read-out: MIC values): 0.4 µg/mL (≈ 1.26 µM)
